From ChEMBL document CHEMBL1140620, “Development of integrase inhibitors for treatment of AIDS: an overview” (Eur J Med Chem, 2007)

Experiments:
[1] = molecular target: T1, Human immunodeficiency virus type 1 integrase (Human immunodeficiency virus 1, UniProt Q7ZJM1); assay: Inhibition of HIV1 integrase-mediated 3'-end processing activity
[2] = molecular target: T1, Human immunodeficiency virus type 1 integrase; assay: Inhibition of HIV1 integrase strand transfer activity
[3] = system: Human immunodeficiency virus 1; assay: Antiviral activity against human immunodeficiency virus 1 in cell culture; format: functional, organism-based
[4] = molecular target: T1, Human immunodeficiency virus type 1 integrase; assay: Inhibition of HIV1 integrase

T1 sequence (Q7ZJM1 whole entry): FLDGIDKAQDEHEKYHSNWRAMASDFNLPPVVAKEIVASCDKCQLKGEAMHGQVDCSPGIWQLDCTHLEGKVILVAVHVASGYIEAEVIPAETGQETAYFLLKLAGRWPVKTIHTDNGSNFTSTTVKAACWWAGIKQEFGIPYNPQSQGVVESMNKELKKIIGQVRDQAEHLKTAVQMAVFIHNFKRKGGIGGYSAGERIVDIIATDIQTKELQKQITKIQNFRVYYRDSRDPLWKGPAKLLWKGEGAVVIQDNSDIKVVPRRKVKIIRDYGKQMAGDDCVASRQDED

Compound: O=C(O)C(=O)CC(=O)c1cc(OCc2ccccc2)cc(OCc2ccccc2)c1
- IC50 [1]: 200 nM
- IC50 [2]: 3500 nM

Compound: COc1cc2c(cc1Cc1cccc(Cl)c1F)c(=O)c(C(=O)O)cn2[C@H](CO)C(C)C
- EC50 [3]: 0.9 nM

Compound: COc1cccc(CN(Cc2cccc(OC)c2)c2ccc3nc(N)[nH]c3c2)c1
- IC50 [2]: 1800 nM

Compound: N=C(N)c1ccc2cc(C#Cc3cccc(OCc4ccccc4)c3)ccc2c1
- IC50 [2]: 2100 nM

Compound: N#C/C(=C(/O)C(=O)O)c1cn(-c2ccc(F)cc2)c2ccccc12
- IC50 [2]: 10000 nM

Compound: CC(C)S(=O)(=O)Nc1ccc2nc(N)[nH]c2c1
- IC50 [2]: 2600 nM

Compound: O=C(O)c1cc2cc(O)c(O)cc2[nH]1
- IC50 [4]: < 10000 nM

Compound: O=C(c1cc(Cc2ccccc2)cc(CN2CCCS2(=O)=O)c1)c1ncc2cccnc2c1O
- IC50 [2]: 10000 nM

Compound: O=C1C(O)=C(O)C(O)=C2CC(O)=CC=CC12 (stereo not given)
- IC50 [4]: 2100 nM

Compound: O=C(CC(=O)c1ccc(Cc2ccc(F)cc2)o1)c1nc[nH]n1
- IC95 [3]: 12000 nM

Compound: CC(C)(C)C1CCC(C2=NCCc3ccc([C@H]4CC4c4ccc5cc(C(=N)N)ccc5c4)cc32)CC1 (stereo not given in full)
- IC50 [2]: 3400 nM

Compound: O=C(NCc1ccc(F)cc1)c1nc(N2CCCCS2(=O)=O)c2cccnc2c1O
- IC95 [3]: 100 nM

Compound: O=C(/C=C/c1cccn1Cc1ccccc1)CC(=O)C(=O)O
- EC50 [3]: 1500 nM

Compound: O=C(O)C(=O)CC(=O)c1cccn1Cc1ccc(F)cc1
- IC95 [3]: 100 nM
